Test results taken from PubChem BioAssay AID330 (DTP/NCI, 2004).
Several values for one entry are separate records, joined by “and”; a condition that tells them apart may be missing. Equal values may be shown once. Inconclusive results and toxic doses are left out. Peptide text beside a SMILES is read from it.

Tested on: P388 leukemia ip, CD2F1 mice, survival T/C
Experiment: NCI In Vivo Anticancer Drug Screen. Data for tumor model P388 Leukemia (intraperitoneal) in CD2F1 (CDF1) mice
Conditions: endpoint: median survival time, higher = longer survival
How it was run: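 Mice carrying the transplanted tumor received test compound or vehicle. Survival was recorded in each group, and the value is the treated-group measurement divided by that of the vehicle-treated control group.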

[1] = dose: 25.0 mg/kg/injection, schedule: Q01DX009 (ip), vehicle: saline with Tween-80
[2] = dose: 25.0 mg/kg/injection, schedule: Q01DX005 (ip), vehicle: Klucel (hydroxypropylcellulose) (HPC)
[3] = dose: 50.0 mg/kg/injection, schedule: Q01DX005 (ip), vehicle: Klucel (hydroxypropylcellulose) (HPC)
[4] = dose: 50.0 mg/kg/injection, schedule: Q01DX005 (ip), vehicle: saline with Tween-80
[5] = dose: 100.0 mg/kg/injection, schedule: Q01DX005 (ip), vehicle: saline with Tween-80
[6] = dose: 100.0 mg/kg/injection, schedule: Q01DX009 (ip), vehicle: saline with Tween-80
[7] = dose: 200.0 mg/kg/injection, schedule: Q01DX009 (ip), vehicle: saline with Tween-80
[8] = dose: 200.0 mg/kg/injection, schedule: Q01DX005 (ip), vehicle: saline with Tween-80
[9] = dose: 60.0 mg/kg/injection, schedule: Q01DX005 (ip), vehicle: saline
[10] = dose: 120.0 mg/kg/injection, schedule: Q01DX005 (ip), vehicle: saline
[11] = dose: 50.0 mg/kg/injection, schedule: Q01DX009 (ip), vehicle: saline with Tween-80
[12] = dose: 100.0 mg/kg/injection, schedule: Q01DX005 (ip), vehicle: Klucel (hydroxypropylcellulose) (HPC)
[13] = dose: 200.0 mg/kg/injection, schedule: Q01DX005 (ip), vehicle: Klucel (hydroxypropylcellulose) (HPC)
[14] = dose: 50.0 mg/kg/injection, schedule: Q01DX009 (ip), vehicle: suspension in saline

C=C(NC(C)=O)C(=O)O
T/C (dose: 6.25 mg/kg/injection, schedule: Q01DX009 (ip), vehicle: saline with Tween-80): 103 % of control | T/C (dose: 12.5 mg/kg/injection, schedule: Q01DX009 (ip), vehicle: saline with Tween-80): 101 % of control and 86 % of control | T/C (dose: 12.5 mg/kg/injection, schedule: Q04DX003 (ip), vehicle: saline with Tween-80): 104 % of control | T/C [1]: 108 % of control | T/C (dose: 25.0 mg/kg/injection, schedule: Q04DX003 (ip), vehicle: saline with Tween-80): 103 % of control | T/C (dose: 50.0 mg/kg/injection, schedule: Q04DX003 (ip), vehicle: saline with Tween-80): 101 % of control | T/C (dose: 100.0 mg/kg/injection, schedule: Q01DX001 (ip), vehicle: saline with Tween-80): 101 % of control

C=C1C(=O)[C@@]23CC1C(O)[C@@H](OC(C)=O)[C@@H]2C1(C)C(OC(C)=O)C[C@@H](OC(C)=O)C(C)(C)[C@@H]1C[C@H]3OC(C)=O (stereo partly drawn)
T/C [2]: 102 % of control | T/C [3]: 117 % of control

COc1cccc(/C=N/NC(=S)Nc2cc(C(F)(F)F)cc(C(F)(F)F)c2)c1O
T/C [2]: 93 % of control | T/C [3]: 100 % of control and 93 % of control

O=C(Nc1ccc(Cc2ccc(NC(=O)C34CC5CC(CC(C5)C3)C4)cc2)cc1)C12CC3CC(CC(C3)C1)C2
T/C [4]: 88 % of control | T/C [5]: 88 % of control

Cc1ccccc1C(C)(C#N)Nc1ccccc1 (stereo not drawn)
T/C [6]: 100 % of control | T/C [7]: 113 % of control | T/C (dose: 400.0 mg/kg/injection, schedule: Q01DX009 (ip), vehicle: saline with Tween-80): 100 % of control

O=[n+]1ccn([O-])c2ccccc21.[O-][Cl+3]([O-])([O-])O.[Zn+2]
T/C (dose: 100.0 mg/kg/injection, schedule: Q04DX003 (ip), vehicle: saline with Tween-80): 98 % of control

COc1ccc(/C=C/C(C)=N/NC(N)=O)cc1OC
T/C [4]: 102 % of control | T/C [5]: 102 % of control | T/C [8]: 106 % of control

CC(C)(CC#N)c1cc(CC(C)(C)c2cc(CC(C)(C)c3cc(CC(C)(C)C4(C)OCCO4)no3)no2)no1
T/C (dose: 30.0 mg/kg/injection, schedule: Q01DX005 (ip), vehicle: saline with Tween-80): 87 % of control | T/C (dose: 60.0 mg/kg/injection, schedule: Q01DX005 (ip), vehicle: saline with Tween-80): 90 % of control and 91 % of control | T/C (dose: 120.0 mg/kg/injection, schedule: Q01DX005 (ip), vehicle: saline with Tween-80): 86 % of control | T/C (dose: 240.0 mg/kg/injection, schedule: Q01DX005 (ip), vehicle: saline with Tween-80): 87 % of control

CCOC(=O)c1nc(N(C)C)oc(=O)c1C
T/C [9]: 101 % of control | T/C [10]: 97 % of control | T/C (dose: 240.0 mg/kg/injection, schedule: Q01DX005 (ip), vehicle: saline): 100 % of control

COc1cc2c(cc1Cl)nc1c(=O)[nH]c(=O)nc-1n2CCN1CCCC1
T/C (dose: 12.5 mg/kg/injection, schedule: Q01DX005 (ip), vehicle: saline with Tween-80): 100 % of control | T/C (dose: 25.0 mg/kg/injection, schedule: Q01DX005 (ip), vehicle: saline with Tween-80): 108 % of control | T/C [4]: 111 % of control and 115 % of control | T/C [5]: 116 % of control | T/C [8]: 114 % of control

O=c1[nH]cnc2cc3c(cc12)nc1n3CCOC1
T/C (dose: 100.0 mg/kg/injection, schedule: Q04DX003 (ip), vehicle: saline): 109 % of control | T/C (dose: 200.0 mg/kg/injection, schedule: Q04DX003 (ip), vehicle: saline): 105 % of control

CCN(CC)Cc1ccccc1CO
T/C (dose: 50.0 mg/kg/injection, schedule: Q01DX005 (ip), vehicle: saline): 110 % of control | T/C (dose: 100.0 mg/kg/injection, schedule: Q01DX005 (ip), vehicle: saline): 106 % of control

Cc1ccc(NC(=O)N(NC(=O)NNc2ccccc2)c2ccccc2)c(C)c1
T/C [11]: 99 % of control | T/C [6]: 93 % of control | T/C [7]: 92 % of control

Cc1cc2cc3c4c(nnc(NN)c4c2o1)-c1ccccc1CC3
T/C (dose: 3.75 mg/kg/injection, schedule: Q01DX005 (ip), vehicle: saline with Tween-80): 99 % of control | T/C (dose: 7.5 mg/kg/injection, schedule: Q01DX005 (ip), vehicle: saline with Tween-80): 101 % of control | T/C (dose: 15.0 mg/kg/injection, schedule: Q01DX005 (ip), vehicle: saline with Tween-80): 99 % of control

CC(N)C(=O)NC(Cc1ccc(O)cc1)C(N)=O (stereo not drawn) (H-Ala-Tyr-NH2; configuration not given here)
T/C [3]: 108 % of control | T/C [12]: 105 % of control | T/C [13]: 100 % of control

CC1CC(c2ccccc2)(c2ccccc2)C(=O)C(C)N1C (stereo not drawn)
T/C [3]: 107 % of control | T/C [12]: 105 % of control | T/C [13]: 97 % of control

CC1(C)NC(=O)c2c(-c3ccccc3)c(-c3ccccc3)n(-c3ccccc3)c2N1
T/C [14]: 96 % of control | T/C (dose: 100.0 mg/kg/injection, schedule: Q01DX009 (ip), vehicle: suspension in saline): 98 % of control | T/C (dose: 200.0 mg/kg/injection, schedule: Q01DX009 (ip), vehicle: suspension in saline): 101 % of control

CCCCOC(=O)OOC(C)(C)C
T/C [11]: 110 % of control | T/C [6]: 110 % of control | T/C [7]: 110 % of control

CC(C)(C)n1nc(C2CC2)c(Br)c1NC(=O)c1ccc(Cl)cc1
T/C (dose: 30.0 mg/kg/injection, schedule: Q01DX005 (ip), vehicle: Klucel (hydroxypropylcellulose) (HPC)): 109 % of control | T/C (dose: 60.0 mg/kg/injection, schedule: Q01DX005 (ip), vehicle: Klucel (hydroxypropylcellulose) (HPC)): 96 % of control | T/C (dose: 120.0 mg/kg/injection, schedule: Q01DX005 (ip), vehicle: Klucel (hydroxypropylcellulose) (HPC)): 101 % of control | T/C (dose: 240.0 mg/kg/injection, schedule: Q01DX005 (ip), vehicle: Klucel (hydroxypropylcellulose) (HPC)): 98 % of control

Cc1cc(O)c(C(c2ccc(C#N)cc2)c2c(O)cc(C)[nH]c2=O)c(=O)[nH]1
T/C [11]: 95 % of control | T/C [6]: 94 % of control | T/C [7]: 98 % of control

O=C(O)C1Cc2c([nH]c3ccccc23)C(CO)N1 (stereo not drawn)
T/C (dose: 25.0 mg/kg/injection, schedule: Q01DX009 (ip), vehicle: suspension in saline): 107 % of control | T/C [14]: 104 % of control

O[C@@H]1CCC[C@@H]2O[C@H]12
T/C (dose: 100.0 mg/kg/injection, schedule: Q04DX002 (ip), vehicle: saline): 102 % of control | T/C (dose: 200.0 mg/kg/injection, schedule: Q04DX002 (ip), vehicle: saline): 103 % of control | T/C (dose: 400.0 mg/kg/injection, schedule: Q04DX002 (ip), vehicle: saline): 109 % of control

CC(O)c1cc2c(o1)C(=O)c1cccc(O)c1C2=O (stereo not drawn)
T/C (dose: 9.38 mg/kg/injection, schedule: Q01DX005 (ip), vehicle: Klucel (hydroxypropylcellulose) (HPC)): 95 % of control | T/C (dose: 18.75 mg/kg/injection, schedule: Q01DX005 (ip), vehicle: Klucel (hydroxypropylcellulose) (HPC)): 95 % of control | T/C (dose: 37.5 mg/kg/injection, schedule: Q01DX005 (ip), vehicle: Klucel (hydroxypropylcellulose) (HPC)): 95 % of control

Nc1cc(=O)[nH]c(=O)[nH]1
T/C [1]: 99 % of control | T/C [11]: 100 % of control | T/C [6]: 100 % of control | T/C [7]: 98 % of control

CN(C)CCSc1nc2ccccc2s1
T/C [9]: 101 % of control | T/C [10]: 104 % of control

CCC(c1ccccc1)c1cc(C(C)(C)C)cc(C(C)(C)C)c1O (stereo not drawn)
T/C (dose: 50.0 mg/kg/injection, schedule: Q01DX005 (ip), vehicle: distilled water + alcohol): 100 % of control | T/C (dose: 100.0 mg/kg/injection, schedule: Q01DX005 (ip), vehicle: distilled water + alcohol): 107 % of control | T/C (dose: 200.0 mg/kg/injection, schedule: Q01DX005 (ip), vehicle: distilled water + alcohol): 100 % of control

O=C1C=C[C@H](O)[C@@]2(CO)O[C@@H]12
T/C (dose: 1.25 mg/kg/injection, schedule: Q04DX002 (ip), vehicle: saline): 103 % of control | T/C (dose: 2.5 mg/kg/injection, schedule: Q04DX002 (ip), vehicle: saline with Tween-80): 114 % of control | T/C (dose: 2.5 mg/kg/injection, schedule: Q04DX002 (ip), vehicle: saline): 104 % of control

C=CCN(CC=C)P(=O)(N(CC=C)CC=C)N(CC=C)CC=C
T/C [3]: 99 % of control | T/C [12]: 99 % of control
